Key:
Format in all cases: cell-based, human
[1] = tested on: Melan-A/MART-1 promoter EGFP reporter cell line; assay: Melan-A/MART-1 promoter-driven EGFP reporter cell line, secondary screen of hits (FIG. 6); conditions: over a dose range (FIG. 6)
Description: FIG. 6 is a series of graphs showing EGFP detection of in cells treated with the indicated hits showing ability to upregulate a cell line containing a Melan-A/MART-1 promoter-driven EGFP reporter. Note that the x-axes (drug concentrations) and y-axes (EGFP fluorescent measurement) cover different ranges to best indicate the activities of individual compounds. Data from a single determination, representative of at least three confirmatory experiments, is shown.
The EGFP reporter driven by the Melan-A/MART-1 promoter represents one such orthogonal assay because it evaluates directly the effect of the compounds on Melan-A/MART-1 promoter activity independent of Melan-A/MART-1 protein expression. Compounds passing the other secondary screens, but failing this one, may affect antigen presentation by other mechanisms such as increasing the efficiency of antigen processing, enhancing MHC Class I levels, or by stabilizing the antigen/MHC complex.
As for the primary screen, 17-AAG and aphidicolin, had the largest impact on EGFP stimulation, inducing 3-fold and 5-fold increases respectively. […]
(§1) Cells were fixed with 1% formaldehyde, permeabilized with 0.1% saponin, stained with monoclonal antibodies to melanocyte antigens. […] The level of EGFP was determined by flow cytometry of unfixed cells that were washed and resuspended in 1×PBS.

MU89 melanoma cells = assay: Tumor cell/T cell co-culture IL-2 ELISA (Melan-A/MART-1 specific TCR Jurkat line J-TCR-M1 as responder); conditions: for Fold increase (IL-2 relative to untreated controls), hits from pilot screen: about 10 μM, 72 hours treatment, then 24 hours co-culture; for IL-2 stimulation in repeat of the tumor T cell co-culture IL-2 ELISA: hits re-tested over a wider dose range (FIG. 5)
Description: The assay relies on the use of an antigen-specific responder T cell line. […] The chosen TCR reacts specifically to a Melan-A/MART-1 decapeptide (26[…]35) presented by HLA-A2, with appropriate triggering of T cell activation. We then used a lentiviral vector system for transduction of this specific TCR into the J.RT3-T3.5 T cell line, a Jurkat cell derivative which fails to express endogenous surface TCR through a mutation in its beta chain.
We evaluated several candidate melanoma cell lines for the ability to stimulate the J-TCR-M1 cell line. Levels of Melan-A/MART-1 (determined by intracellular staining and flow cytometry) and corresponding levels of induced IL-2 (determined by coculture with J-TCR-M1 and IL-2 ELISA) were tested for different melanoma cell lines.
The 480 compounds were tested in six parallel 96 well plates. The first two columns (16 wells) of each plate were used for standards (8 wells), untreated controls (4 wells), and positive controls (4 wells). The other ten columns (80 wells) were used for testing compounds in separate wells. A100 μl aliquot containing 5×10^4 MU89 cells was added to wells that contained 0.1 μl of each test drug diluted in 50 μl of RPMI media. The plates were incubated with drug for 72 hours at 37° C. in a humidified incubator with 5% CO2. After 72 hours, each well received 2.5×10^4J-TCR-M1 cells in 50 μl medium, and then incubated a further 24 hours. At the conclusion of the 24 hour co-culture period, each plate was centrifuged to pellet the cells and 100 μl supernatant fluid was collected from each well and plated in a parallel 96 well flat bottom well for IL-2 ELISA assay.
Melanoma cells were treated with hits from the primary screen for three days prior to counting and plating for the coculture assay (cells were washed and resuspended in fresh medium that no longer contained the treatment agents during the co-culture). A100 μl volume of 5×10^5 cells/ml tumor cells were mixed with 50 μl of […] T cells in a 96-well V-bottom plate and incubated overnight (16-24 hours). Plates were centrifuged to pellet the cells and 100 μl of supernatant fluid was removed from each well for cytokine assay. To assess antigen-specific T cell responses, a final concentration of 3.33 μg/ml Melan-A/MART-1 peptide (26[…]35 (A27L from wild type)) was added to the co-culture.
(§2) The protocol for evaluation of the cytokine IL-2 was performed using a the BD OptEAI kit, human IL-2 ELISA set from BD Biosciences (San Diego, Calif.) following the manufacturer's recommendations. The absorbance 450 nm was read in a BioRad 3550 plate reader. A standard curve using known concentrations of IL-2 (from 500 to 8 pg/ml) was included in each ELISA plate. IL-2 levels for experimental samples (pg/ml) were calculated from the standard curve.
100 μl of 5×10^5 tumor cells/ml were mixed with 50 μl of T cells (at 5×10^5 cells/ml) in a 96-well V-bottom plate and incubated overnight (16-24 hours). Plates were centrifuged to pellet the cells and 120 μl of supernatant fluid was removed from each well for cytokine assay. To assess antigen-specific T cell responses, 3.33 μg/ml Melan-A/MART-1 peptide was added to the co-culture.
The protocols for evaluation of either IL-2 or IFN-gamma were similar, following the manufacturer's recommendations. A standard curve using known concentrations of each cytokine was included in each ELISA experiment. ELISA plates were coated with capture antibody and then washed with 1×PBS 0.5% Tween-20. Wells were blocked with 1×PBS 1% FBS for 1 hour and rewashed.

melanomas and gliomas = assay: Intracellular staining for Melan-A/MART-1 and gp100, melanomas and gliomas exposed to hits (Table 10); conditions: in most cell lines; three days (Table 10)
Method: FIG. 7 is a series of graphs showing intracellular staining and flow histograms used to generate data for Table 10. All cells were stained with an antibody to gp100. Thin line represents untreated cells, bold line represents cells treated for three days with 17-AAG (1 μg/ml). Numbers represent geometric mean of flow histograms.
A further orthogonal secondary screen is the measurement of Melan-A/MART-1 and gp100 in additional melanoma cell lines and gliomas in response to the primary hit candidates. […] If the compounds of interest increase antigen levels in multiple melanoma cell lines and two gliomas, the effects of the compounds are clearly not limited to a single melanoma cell type.
As for the primary screen, 17-AAG and aphidicolin, had the largest impact on EGFP stimulation, inducing 3-fold and 5-fold increases respectively. Four additional compounds: damnacanthal, flunarizine, OBAA, and dantrolene stimulated EGFP more than 2-fold. We then tested the ability of the hit compounds to induce antigen increases in a more diverse set of tumors including melanomas and gliomas. […]
as §1

[2] = tested on: MU89 MART::EGFP cell line; assay: Melan-A/MART-1 promoter-driven EGFP reporter, kinetics by flow cytometry; conditions: MU89 MART::EGFP (FIG. 11)
Method: FIG. 11 is a set of four graphs showing the kinetics of Melan-A/MART-1 increase. […] The same number of cells per well were plated in each well of a 24 well plate and drug was added on day zero. Each day cells were collected and assayed for that time point. Control untreated cells are shown for comparison. The data are from one representative experiment.
A kinetic analysis was performed to determine the effect of Hsp90 inhibition on Melan-A/MART-1 promoter activity over time. […] Reporter activity increases steadily for the first 72 hours of Hsp90 inhibition, and then plateaus. The need for continued presence of Hsp90 inhibitors in order for them to be effective (i.e. whether the drug can be removed after short exposure, or whether it must it be continually present) was assessed. […] To achieve full signal enhancement, it is desirable to retain the drug for at least 48 hours, after which the effect remains constant or slightly decreases.
The generation and application of EGFP reporter cells has been previously described. Briefly, a 1200 base pair human genomic DNA segment encompassing the Melan-A/MART-1 promoter was used to generate a construct driving expression of the EGFP reporter gene. Stable transfectants with this construct were generated in the low-antigen cell line A375 and the high-antigen line MM96L+ and MU89. The EGFP expression response patterns of these cells to IFN-beta and MAP kinase inhibitors recapitulates the antigen up-regulation of endogenous Melan-A/MART-1 induced by these agents.
Intracellular staining and flow cytometric analyses of cytoplasmic Melan-A/MART-1, and gp100 expression were performed as described previously. Cells were fixed with 1% formaldehyde, permeabilized with 0.1% saponin, stained with monoclonal antibodies to melanocyte antigens. Antibodies were obtained with specificity for: Melan-A/MART-1 from Vector Labs (Burlingame, Calif.); gp100/HMB45 from DakoCytomation (Carpinteria, Calif.) and then visualized with goat anti-mouse FITC-conjugated secondary antibody from Invitrogen (Frederick, Md.). The level of EGFP was determined by flow cytometry of unfixed cells washed and resuspended in 1×PBS. Surface staining of MHC Class I was carried out using the antibody W6/32 on cells harvested with Cell Stripper from MediaTech Inc. (Manassas, Va.) and carried out on ice.

J-TCR-M1 T cells = assay: Secondary screen for nonspecific T cell activation (T cells alone, IL-2); conditions: 2.5×10^4 T cells alone, no tumor; PMA 2 μg/ml
Method: FIG. 4 is a graph showing IL-2 expression from the secondary screen for nonspecific T cell activation. Bars indicate the incubation of 2.5×10^4 T cells alone with the indicated compounds. The concentration of compounds used in this assay are; 17-AAG 10 μg/ml, OBAA 25 μg/ml, aphidicolin 4 μg/ml, flunarizine 8 μg/ml, dantrolene 2 μg/ml, glyburide 4 μg/ml, and PMA 2 μg/ml.
Secondary screens were carried out on the 8 primary hits, to further test performance robustness, specificity, and certain functional properties. Initially, for any previously-described compound, extensive literature searches must be performed to look for all relevant known bioactivities, especially towards melanocytic cells or T cells. […] Testing for non-specific T cell stimulation will identify false positives, and compounds failing this test will not be further evaluated in any other secondary screens. […]
as §2, with “A standard curve using known concentrations of IL-2 (from 500 to 8 pg/ml) was included in each ELISA plate.” left out

| Structure (SMILES) | EGFP stimulation (Melan-A/MART-1 promoter reporter) [1] | Outcome in the primary co-culture IL-2 screen (hit or not) (MU89 melanoma cells; ICCB Known Bioactives Library, 10 μM) | Fold increase (IL-2 relative to untreated controls), hits from pilot screen (MU89 melanoma cells) | IL-2 stimulation in repeat of the tumor T cell co-culture IL-2 ELISA (MU89 melanoma cells) | Protein increase (Melan-A/MART-1, gp100 intracellular staining) (melanomas and gliomas) | Time at which the fluorescent reporter signal is significantly enhanced (as early as) [2] | IL-2 expression of T cells incubated alone with compound (nonspecific T cell activation) (J-TCR-M1 T cells) |
| --- | --- | --- | --- | --- | --- | --- | --- |
| C=CCNC1=C2C[C@@H](C)C[C@H](OC)[C@H](O)[C@@H](C)/C=C(\C)[C@H](OC(N)=O)[C@@H](OC)/C=C\C=C(/C)C(=O)NC(=CC1=O)C2=O [17-AAG, 17-allylaminogeldanamycin] | 3 fold | identified as a hit | 7.7 fold | about 7 fold | inducing high levels of protein increases at low concentrations | 2 days |  |
| C[C@@]1(CO)[C@H](O)CC[C@@]2(C)[C@H]1CC[C@H]1C[C@@H]3C[C@@]12CC[C@]3(O)CO [Aphidicolin] | 5 fold |  | 2.0 fold | ~5 fold | inducing high levels of protein increases at low concentrations |  |  |
| CCCCCCCCCCCCCC(=O)O[C@@H]1[C@@H](C)[C@@]2(O)[C@@H](C=C(CO)C[C@]3(O)C(=O)C(C)=C[C@@H]23)[C@@H]2C(C)(C)[C@]12OC(C)=O [PMA, phorbol-12-myristate-13 acetate] |  |  | 1.9 fold |  |  |  | caused T cells stimulation in the absence of tumor |
